Data taken from ChEMBL document CHEMBL4765227, “Hit to lead optimization of a series of N-[4-(1,3-benzothiazol-2-yl)phenyl]acetamides as monoacylglycerol lipase inhibitors with potential anticancer activity” (Eur J Med Chem, 2016).

Legend:
Type in all cases: functional
OVCAR-3 = experiment: Growth inhibition of human OVCAR-3 cells incubated for 48 hrs by sulforhodamine B assay
A498 = experiment: Growth inhibition of human A498 cells incubated for 48 hrs by sulforhodamine B assay; details: for CC50: read-out: LC50 (the source's name)
NCI/ADR-RES = experiment: Growth inhibition of human NCI/ADR-RES cells incubated for 48 hrs by sulforhodamine B assay
786-0 = experiment: Growth inhibition of human 786-0 cells incubated for 48 hrs by sulforhodamine B assay
CCRF-CEM = experiment: Growth inhibition of human CCRF-CEM cells incubated for 48 hrs by sulforhodamine B assay
TK-10 = experiment: Growth inhibition of human TK-10 cells incubated for 48 hrs by sulforhodamine B assay

SMILES	GI50 (OVCAR-3) [µM]	LC50 (OVCAR-3) [µM]	TGI (OVCAR-3) [µM]	GI50 (A498) [µM]	TGI (A498) [µM]	CC50 (A498) [µM]	GI50 (NCI/ADR-RES) [µM]	LC50 (NCI/ADR-RES) [µM]	TGI (NCI/ADR-RES) [µM]	GI50 (786-0) [µM]	LC50 (50% lethal concentration) (786-0) [µM]	TGI (786-0) [µM]	GI50 (CCRF-CEM) [µM]	TGI (CCRF-CEM) [µM]	CC50 (CCRF-CEM; read-out: LC50 (the source's name)) [µM]	GI50 (TK-10) [µM]	LC50 (TK-10) [µM]	TGI (TK-10) [µM]
O=C(CNc1c(Cl)cccc1Cl)Nc1ccc(-c2nc3ccccc3s2)cc1	1.81	5.79	3.24	13.8	26.9	52.4	3.06	> 100	8.06	1.76	8.34	3.83	0.657	2.97	45.9	2.15	18.3	5.41
O=C(CNc1ccc(Cl)cc1)Nc1ccc(-c2nc3ccccc3s2)cc1	1.85	5.88	3.3	13	25.8	50.9	3.03	> 100	8.5	1.85	9	4.08	–	–	–	2.2	21.5	5.84
